Test results taken from US8158623B2, “Heptacyclic compounds and the pharmaceutical uses thereof for preventing and treating diabetes and metabolic syndrome” (Shanghai Institute of Materia Medica Chinese Academy of …, priority 2007, dated 2012).
“Also recorded” adds a separate entry of the source.

How the values were obtained:
3T3-L1 adipocytes = assay: Glucose uptake in 3T3-L1 adipocytes (3H-labelled 2-deoxyglucose); assay type: cell-based; details: for Glucose uptake, Mean, Compound + Insulin Group (Control Group = 1.000): 10 μM, 2 h incubation, with insulin, relative to control without insulin; for fold induction at 10 µM: Mus musculus, 3T3-L1, 2 h incubation, baseline (without insulin), relative to control, read-out: Glucose uptake, Mean, Compound Group (Control Group = 1.000)
Procedure: The effect of the compounds on baseline or insulin-stimulated glucose uptake was evaluated, using the model of glucose uptake in 3T3-L1 adipocytes.
Adipose tissue is the target of glucose metabolism in vivo. The sensitivity for insulin and availability of glucose in adipose tissues are tightly associated with the insulin resistance. The transportation of glucose into adipocytes is a rate-limiting step for the glucose metabolism, and also an important indicator for evaluating the sensitivity for insulin in adipose tissue. 3T3-L1 is a kind of pre-adipocyte, and can become adipocyte after differentiated completely. Therefore, 3T3-L1 is a desirable model for the glucose transport.
Pre-adipocyte, 3T3-L1 was induced to differentiate under certain conditions. After 3T3-L1 differentiated into adipocytes, the compounds of interest with different concentrations and DMSO (used as control) can be added and incubated with the adipocytes for different periods, then the glucose uptake could be determined. For evaluating the ability for a compound to stimulate glucose uptake, the baseline and insulin-induced glucose uptake were determined, and the increase in baseline and insulin-induced glucose uptake upon treatment of the compounds as compared with control group (with 0.1% DMSO) is calculated, based on the ^3H-labelled 2-deoxyglucose inside the cells.
3T3-L1 cells purchased from Karolinska Institute (Sweden) were cultured in DMEM medium containing 10% fetal calf serum at 37° C., under 5% CO2. The cells were passaged every 3-4 days. The cells were inoculated into 12-well plate. Upon confluence, culture medium containing 0.5 mM 3-isobutyl-1-methylxanthine, 0.25 μM dexamethasone and 5 μg/ml insulin was added and cultured for 3 days. Then, the culture medium was replaced by a medium containing 5 μg/ml insulin and further cultured for 3 days. The insulin was removed, and the cells had differentiated completely into mature adipocytes after 2 days which could be used to determine the glucose uptake.
23 compounds chosen by the inventors were added into the culture medium of adipocytes in a dose of 10 μM. After incubation for 2 h, the effect of the compounds on glucose uptake in 3T3-L1 cells was observed. Culture medium without compounds was used as negative control. The control group only supplemented with insulin and the experiment group supplemented with compounds plus insulin were also employed to observe the effect of the compounds on glucose uptake.

[1] = tested on: AMP-Activated Protein Kinase (AMPK); assay: Phosphorylation of AMPK in HepG2 cell (Western blot); assay type: cell-based, Human; details: HepG2, 50 uM, 5 minutes, P<0.01 or P<0.05
Procedure: (§1) Human hepatoma carcinoma cell strain (HepG2, purchased from the cell bank of Shanghai Institute of Cell Biology of Chinese Academy) was used. The Human hepatoma carcinoma cells were passaged by 0.1% pancreatin/0.02% EDTA digestion, and cultured in a incubator at 37° C. using MEM culture medium containing 10% FBS, under 5% CO2/95%.
(§2) HepG2 cells were cultured in 6-well plates for 48 hours until 70%-80% confluence. Serum starvation was started by changing medium with MEM containing 0.5% BSA. After starvation for 6 hours, cells were treated with the compounds (final concentration of 50 uM, containing 0.25% DMSO) for 5 minutes. The culture medium was discarded, and cells were harvested and washed for twice with pre-cooled PBS. The washing liquid was discarded, and any residual PBS was blotted dry. DMSO without heptacyclic compounds was used as control.
(§3) Extraction of total cellular protein: 150 μl/well homogenizing buffer (137 mM NaCl, 2.7 mM KCl, 1 mM MgCl2, 0.5 mM Na3VO4, 1% Triton X-100, 10% Glycerol, 20 mM Tris-HCl pH 7.8, 1 ug/ml Leupeptin, 0.2 mM PMSF, 10 mM NaF, 1 ug/ml Aprotinin, 1 mM EDTA, 1 mM DTT, 5 mM Sodium pyrophosphate, 1 mM Benzamidine) was added. Cells were collected into a 1.5 ml centrifuge tube using cell scraper. Cells were homogenized using sonicator (5 W of power) for 2 times (3 seconds per time), and shaken on a shaker for 1 hour. Supernatant (i.e., total cellular protein) was collected by centrifuging at 14000 rpm for 15 min at 4° C., and stored at −70° C. until use. After the protein concentration was determined by Bradford method, the supernatant was formulated as the loading sample with final concentration of 0.6 mg/ml. The whole preparation process was performed at 4° C.
(§4) Protein Electrophoresis: After being treated at 95° C. for 5 min, the loading sample was loaded (15 μg protein/lane). The protein was separated on 7.5% SDS-acrylamide gel for 1-2 hours under the voltage of 80-120 V.
(§5) Electrotransferring the protein and blocking the membrane: After electrophoresis was finished, the protein was transferred to PVDF membrane using semi-dry transferring slot based on 0.8 mA/cm^2 membrane area under the electric current of 80 mA for 2 hours. After that, the membrane was shaken for 2 hours with 7.5% skim milk/TTBS to block the membrane.
(§6) Antigen-antibody reaction: After the blocking process was finished, the membrane was incubated with primary antibody (antibody against phosphorylated ACC (P-ACC) and antibody against phosphorylated AMPK (P-AMPK), all purchased from Cell signaling (USA), with the working concentration of 1:1000) overnight at 4° C. The membrane was removed, and the primary antibody was recovered. The membrane was washed 5 times, each for 10 min in TTBS. The membrane was shaken for 2 hours with the secondary antibody (horseradish peroxidase-conjugated goat-anti-rabbit IgG antibody, purchased from Bio-rad (USA), with the working concentration of 1:5000) at room temperature. The secondary antibody was discarded. The membrane was washed 5 times, each for 10 min in TTBS in order to remove the unbound secondary antibody.
(§7) ECL exposure and development: Luminescent agents, ECL 1, 2, were mixed homogeneously, and incubated with the membrane for 3-5 min. The membrane was removed, wrapped in preservative film, and transferred into dark room for exposure. After exposure with X-film, the film was developed, washed, recorded and conserved.
(§8) Semi-quantitative analysis was performed through optical density scan using computer image analysis system. Grey level of the protein expression was calculated. The target grey level was divided by the grey level of internal standard, and a histogram was plotted, taking the normal group as 1 unit.

[2] = tested on: Acetyl CoA Carboxylase (ACC); assay: Phosphorylation of ACC in HepG2 cell (Western blot); assay type: cell-based, Human; details: HepG2, 50 uM, 5 minutes, P<0.01 or P<0.05
Procedure: as §1, §2, §3, §4, §5, §6, §7, §8

ob/ob mice = assay: Fasting blood glucose in ob/ob mice, several heptacyclic compounds, 8 days; assay type: in vivo; details: for Fasting blood glucose change in words: dosed continuously for 8 days, P<0.05
Procedure: Genetic spontaneous diabetes ob/ob mice were purchased from Jackson (USA), and maintained in a SPF facility (temperature: 22-24° C., humidity: 45-80%, illumination: 150-300 Lx, 12/12-hour light/dark cycle). Fasting blood glucose was determined for 3 days continuously when the mice were 7 weeks old. The mice were grouped into the treatment group and the control group (6 animals per group) according to the results determined. The treatment groups were administered orally with compound E9, G0 and F7 (psoromic acid) (100 mg/kg), and the control group was administered orally with a solution of 0.1% Tween 80 (blank control), once daily for 8 days. Fasting blood glucose in mice was determined at the end of experiment.

[3] = oral 100 mg/kg once daily, after 8 days treatment

Compound	Glucose uptake, Mean, Compound + Insulin Group (Control Group = 1.000) (3T3-L1 adipocytes)	fold induction at 10 µM (3T3-L1 adipocytes)	Level of phosphorylation for AMPK protein versus DMSO control [1]	Level of phosphorylation for ACC protein versus DMSO control [2]	Fasting Blood Glucose (ob/ob mice; before administration)	Fasting blood glucose change in words (ob/ob mice)	Fasting Blood Glucose (ob/ob mice; [3])
CCN(CC)C(=O)c1cc(OC)c(C)c2c1Oc1c(C=O)c(O)cc(C)c1C(=O)O2 [AB5, 4-Formyl-3-hydroxy-8-methoxy-1,9-dimethyl-11-oxo-11H-dibenzo[b,e][1,4]dioxepine-6-carboxylic acid diethylamide]	1.755	1.29	increased significantly	improved significantly	–	–	–
COc1cc(C(=O)NCc2ccccc2)c2c(c1C)OC(=O)c1c(C)cc(O)c(C=NCc3ccccc3)c1O2 [AB6, 4-(Benzylimino-methyl)-3-hydroxy-8-methoxy-1,9-dimethyl-11-oxo-11H-dibenzo[b,e][1,4]dioxepine-6-carboxylic acid benzylamide]	1.432	1.14	increased significantly	improved significantly	–	–	–
CCOC(=O)c1cc(OC)c(C)c2c1Oc1c(C=O)c(O)cc(C)c1C(=O)O2 [Compound A2, 4-Formyl-3-hydroxy-8-methoxy-1,9-dimethyl-11-oxo-11H-dibenzo[b,e][1,4]dioxepine-6-carboxylic acid ethyl ester]	3.138	1.37	significant up-regulation	improved significantly	–	–	–
CCCOC(=O)c1cc(OC)c(C)c2c1Oc1c(C=O)c(O)cc(C)c1C(=O)O2 [Compound A4, 4-Formyl-3-hydroxy-8-methoxy-1,9-dimethyl-11-oxo-11H-dibenzo[b,e][1,4]dioxepine-6-carboxylic acid propyl ester]	3.449	1.18	significant up-regulation	improved significantly	–	–	–
COc1cc(C(=O)O)c2c(c1C)OC(=O)c1c(C)cc(O)c(CNc3ccccc3)c1O2 [Compound B9, 3-Hydroxy-8-methoxy-1,9-dimethyl-11-oxo-4-phenylaminomethyl-11H-dibenzo[b,e][1,4]dioxepine-6-carboxylic acid]	2.824	1.16	increased significantly	improved significantly	–	–	–
COc1cc(C(=O)O)c2c(c1C)OC(=O)c1c(C)cc(O)c(CNCCn3cccc3)c1O2 [Compound C1, 3-Hydroxy-8-methoxy-1,9-dimethyl-11-oxo-4-[(2-pyrrol-1-yl-ethylamino)-methyl]-11H-dibenzo[b,e][1,4]dioxepine-6-carboxylic acid]	4.059	1.21	increased significantly	improved significantly	–	–	–
COc1cc(C(=O)O)c2c(c1C)OC(=O)c1c(C)cc(O)c(CNCCN3CCOCC3)c1O2 [Compound C7, 3-Hydroxy-8-methoxy-1,9-dimethyl-4-[(2-morpholin-4-yl-ethylamino)-methyl]-11-oxo-11H-dibenzo[b,e][1,4]dioxepine-6-carboxylic acid]	3.610	1.22	increased significantly	improved significantly	–	–	–
COc1cc(C(=O)O)c2c(c1C)OC(=O)c1c(C)cc(O)c(CO)c1O2 [Compound E9, 3-Hydroxy-4-hydroxymethyl-8-methoxy-1,9-dimethyl-11-oxo-11H-dibenzo[b,e][1,4]dioxepine-6-carboxylic acid]	2.965	1.1	significant up-regulation; also recorded: increased significantly	improved significantly	11.99 ± 1.48 mM	reduced statistically significant	8.68 ± 1.32 mM
CCOCc1c(O)c(C(=O)O)c(C)c2c1OC(=O)c1c(C)cc(O)c(C=O)c1O2 [Compound G0, 9-Ethoxymethyl-4-formyl-3,8-dihydroxy-1,6-dimethyl-11-oxo-11H-dibenzo[b,e][1,4]dioxepine-7-carboxylic acid]	1.297	1.22	increased significantly	improved significantly	11.95 ± 1.49 mM	reduced statistically significant	8.07 ± 1.07 mM
CN(C)C(=N)N=C(N)N [Metformin, reference compound]	–	–	–	–	12.27 ± 2.69 mM	–	8.13 ± 2.76 mM
